In ChEMBL document CHEMBL1201862, “PubChem BioAssay data set” (2004):
Active and inactive are the calls of the source.

Experiments:
Cytochrome P450 2C19 = Cytochrome P450 2C19 (Homo sapiens, UniProt P33261); experiment: Cytochrome panel assay with activity outcomes. Panel member name: p450-cyp2c19 Compounds with AC50 equal or less than 10 uM are considered active; type: functional; settings: read-out: AC50
Cytochrome P450 3A4 = Cytochrome P450 3A4 (Homo sapiens, UniProt P08684);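 also: CYP3A4 tested as one member of a cytochrome P450 panel screen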
Cytochrome P450 3A4, sequence (P08684 whole entry): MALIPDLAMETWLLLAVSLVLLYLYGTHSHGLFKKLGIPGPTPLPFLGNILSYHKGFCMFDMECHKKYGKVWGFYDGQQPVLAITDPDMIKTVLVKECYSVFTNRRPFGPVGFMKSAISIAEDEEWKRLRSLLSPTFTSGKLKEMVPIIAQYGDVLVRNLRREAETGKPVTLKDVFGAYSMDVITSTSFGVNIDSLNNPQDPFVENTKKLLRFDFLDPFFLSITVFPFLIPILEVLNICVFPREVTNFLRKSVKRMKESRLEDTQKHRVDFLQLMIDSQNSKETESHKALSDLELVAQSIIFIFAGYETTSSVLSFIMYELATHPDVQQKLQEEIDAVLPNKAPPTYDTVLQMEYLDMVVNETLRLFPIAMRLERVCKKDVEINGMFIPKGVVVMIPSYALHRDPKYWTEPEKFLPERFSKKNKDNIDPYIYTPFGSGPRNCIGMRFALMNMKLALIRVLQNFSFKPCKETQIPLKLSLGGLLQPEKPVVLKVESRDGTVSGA

[1] = biological target: T1, Corticotropin-releasing factor receptor 2/Corticotropin-releasing factor-binding protein (Homo sapiens, UniProt P24387+Q13324); experiment: activators of CRF receptor 2 with binding protein – uHTS hits, confirmation (AID 602473); type: functional; settings: read-out: EC50_Mean
T1 sequence (Q13324 whole entry): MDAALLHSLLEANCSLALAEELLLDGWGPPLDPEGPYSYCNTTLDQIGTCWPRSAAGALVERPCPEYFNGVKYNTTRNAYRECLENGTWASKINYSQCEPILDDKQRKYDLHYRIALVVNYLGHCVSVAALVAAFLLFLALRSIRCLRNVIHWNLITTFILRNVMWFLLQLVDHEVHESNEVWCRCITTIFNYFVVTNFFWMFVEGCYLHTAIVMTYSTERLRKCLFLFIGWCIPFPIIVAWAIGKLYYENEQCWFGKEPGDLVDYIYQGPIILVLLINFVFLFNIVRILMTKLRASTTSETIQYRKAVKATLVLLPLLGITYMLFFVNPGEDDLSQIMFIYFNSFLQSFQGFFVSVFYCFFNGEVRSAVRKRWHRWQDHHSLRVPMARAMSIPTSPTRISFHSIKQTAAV
T1 sequence (P24387 whole entry): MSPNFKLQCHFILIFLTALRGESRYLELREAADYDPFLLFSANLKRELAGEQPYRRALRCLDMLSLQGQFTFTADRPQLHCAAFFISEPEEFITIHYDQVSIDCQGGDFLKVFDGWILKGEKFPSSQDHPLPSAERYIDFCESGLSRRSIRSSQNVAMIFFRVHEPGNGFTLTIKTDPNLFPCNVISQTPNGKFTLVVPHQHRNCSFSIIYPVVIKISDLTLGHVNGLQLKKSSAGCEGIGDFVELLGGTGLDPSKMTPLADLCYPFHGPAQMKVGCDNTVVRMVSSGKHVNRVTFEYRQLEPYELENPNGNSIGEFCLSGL

[2] = biological target: T2, Heat shock factor protein 1 (Mus musculus, UniProt P38532); experiment: inhibition of MG132-induced HSE-luciferase signal, confirmation, cell-based, NIH3T3, luminescence, dose retest (AID 2382); type: functional;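 also: NIH3T3 fibroblasts with HSF1-driven luciferase reporter stressed by proteasome inhibitor MG132; luminescence from HSF1-driven luciferase expression after 8 hours of MG132 stress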
T2 sequence (P38532 whole entry): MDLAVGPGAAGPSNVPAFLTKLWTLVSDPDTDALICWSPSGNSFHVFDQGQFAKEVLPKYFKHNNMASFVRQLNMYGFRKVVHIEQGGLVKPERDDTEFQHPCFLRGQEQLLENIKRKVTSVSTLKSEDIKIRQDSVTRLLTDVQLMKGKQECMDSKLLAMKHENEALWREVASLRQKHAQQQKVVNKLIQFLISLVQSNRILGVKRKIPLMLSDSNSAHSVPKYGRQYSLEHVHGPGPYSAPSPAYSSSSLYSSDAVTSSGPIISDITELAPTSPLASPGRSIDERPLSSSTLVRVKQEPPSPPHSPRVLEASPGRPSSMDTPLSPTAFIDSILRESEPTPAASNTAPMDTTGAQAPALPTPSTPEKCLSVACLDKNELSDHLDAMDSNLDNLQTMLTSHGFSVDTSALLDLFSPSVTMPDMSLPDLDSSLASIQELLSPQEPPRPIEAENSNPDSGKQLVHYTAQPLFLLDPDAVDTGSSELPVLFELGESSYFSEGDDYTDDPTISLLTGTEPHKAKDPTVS

[3] = inhibitors of firefly luciferase expression or activity, dose response, H4 neuroglioma cells, luminescence (AID 1990); type: functional, cell-based
[4] = Luminescence Cell-Based Dose Response HTS to Identify Inhibitors of 5'UTR Stem-Loop Driven Prion Protein mRNA Translation in H4 Neuroglioblastoma Cells. [Related pubchem assays: 1827 (Project Summary), 1813 (Primary HTS)]; type: functional
[5] = inhibitors of SNCA 5'UTR-driven reporter translation, confirmation, H4 neuroglioma cells, luminescence (AID 1988); type: functional, cell-based
[6] = HEp-2 cell cytotoxicity, dose response, cytotoxicity control for RSV inhibitor project, HTS (AID 2410); type: functional; settings: human respiratory syncytial virus
[7] = inhibitors of intracellular T. cruzi replication, confirmation, NIH3T3 host cells, beta-gal luminescence (AID 2044); type: functional, cell-based;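 also: intracellular parasites grown in NIH/3T3 mouse fibroblasts as host cells; luminescent beta-galactosidase reporter signal from transgenic T. cruzi replicating inside host cells; inhibitors lower the luminescence signal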
[8] = cytotoxicity toward NIH3T3 fibroblasts, dose response, counter-screen, cell-based, ATP luminescence, mouse fibroblasts (AID 2010); type: functional;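 also: cells exposed to compound for about 90 hours before reading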
Cytochrome P450 1A2 = biological target: T3, Cytochrome P450 1A2 (Homo sapiens, UniProt P05177);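 also: PubChem cytochrome P450 panel assay, CYP1A2 panel member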
T3 sequence (P05177 whole entry): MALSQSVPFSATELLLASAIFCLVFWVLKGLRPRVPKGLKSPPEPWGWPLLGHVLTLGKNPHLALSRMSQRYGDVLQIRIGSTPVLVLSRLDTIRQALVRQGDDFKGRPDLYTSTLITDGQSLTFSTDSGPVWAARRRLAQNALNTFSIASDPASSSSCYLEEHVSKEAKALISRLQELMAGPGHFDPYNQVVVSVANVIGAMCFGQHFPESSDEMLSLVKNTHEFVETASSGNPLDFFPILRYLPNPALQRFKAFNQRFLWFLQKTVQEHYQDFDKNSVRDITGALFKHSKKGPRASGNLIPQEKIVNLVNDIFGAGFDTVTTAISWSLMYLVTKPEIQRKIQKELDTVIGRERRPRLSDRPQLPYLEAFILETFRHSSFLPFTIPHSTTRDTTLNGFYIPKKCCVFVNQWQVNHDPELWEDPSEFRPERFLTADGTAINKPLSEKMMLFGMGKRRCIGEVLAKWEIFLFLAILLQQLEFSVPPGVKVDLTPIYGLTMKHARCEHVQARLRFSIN

Cytochrome P450 2C9 = Cytochrome P450 2C9 (Homo sapiens, UniProt P11712)
Cytochrome P450 2C9, sequence (P11712 whole entry): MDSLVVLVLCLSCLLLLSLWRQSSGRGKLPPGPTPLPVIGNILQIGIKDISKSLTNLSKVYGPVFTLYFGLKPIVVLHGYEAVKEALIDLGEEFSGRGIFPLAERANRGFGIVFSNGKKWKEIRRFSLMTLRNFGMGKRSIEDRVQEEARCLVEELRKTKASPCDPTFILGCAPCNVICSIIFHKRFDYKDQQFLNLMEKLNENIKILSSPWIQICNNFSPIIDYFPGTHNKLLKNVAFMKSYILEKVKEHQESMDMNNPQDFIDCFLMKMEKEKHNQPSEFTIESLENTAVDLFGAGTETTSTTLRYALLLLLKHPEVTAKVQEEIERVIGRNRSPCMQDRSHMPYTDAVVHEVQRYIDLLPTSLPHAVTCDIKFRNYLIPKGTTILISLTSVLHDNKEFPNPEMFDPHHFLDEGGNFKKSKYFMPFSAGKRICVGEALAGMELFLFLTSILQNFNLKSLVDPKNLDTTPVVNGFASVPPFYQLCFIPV

Cytochrome P450 2C19, sequence (P33261 whole entry): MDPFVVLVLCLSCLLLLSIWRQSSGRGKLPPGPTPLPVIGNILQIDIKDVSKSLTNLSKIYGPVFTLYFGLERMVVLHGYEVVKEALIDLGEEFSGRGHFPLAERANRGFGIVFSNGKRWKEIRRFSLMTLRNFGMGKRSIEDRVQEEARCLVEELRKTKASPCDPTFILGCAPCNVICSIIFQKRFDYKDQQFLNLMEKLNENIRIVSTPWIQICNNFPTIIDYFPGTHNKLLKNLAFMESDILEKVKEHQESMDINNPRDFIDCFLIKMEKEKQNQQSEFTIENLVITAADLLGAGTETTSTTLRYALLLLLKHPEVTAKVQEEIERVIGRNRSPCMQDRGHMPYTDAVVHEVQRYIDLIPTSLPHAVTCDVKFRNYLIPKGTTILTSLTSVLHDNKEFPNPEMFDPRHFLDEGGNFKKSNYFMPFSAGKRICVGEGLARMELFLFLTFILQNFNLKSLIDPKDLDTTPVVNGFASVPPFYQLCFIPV

COC(=O)N1CCC2(CCCN(C(=O)Nc3cccc(C#N)c3)C2)CC1
AC50 (Cytochrome P450 2C19): 10 µM (inconclusive)
AC50 (Cytochrome P450 3A4): 6.31 µM (inconclusive)

CCC1CCCCN1Cc1ccc(OC)c(C)c1 (stereo unspecified)
EC50 [1]: 14 µM (active)

COC(=O)[C@@H]1CC[C@H](C)[C@@H](c2ccc(C)cc2)N1C(=O)c1ccc(/C=N\OC[C@@H](O)COCc2ccco2)cc1
AC50 (Cytochrome P450 2C19): 2.51 µM (inconclusive)
AC50 (Cytochrome P450 3A4): 1.26 µM (inconclusive)

Cc1n[nH]c(C)c1S(=O)(=O)N1CCC(C(=O)O)CC1
AC50 (Cytochrome P450 2C19): 22.4 µM (inconclusive)

O=C(c1ccc2c(=O)n(Cc3ccccc3)c(=S)[nH]c2c1)N1CCOCC1
EC50 [2]: > 195 µM (not active)

CCN(CC)c1nc2c(c(=O)[nH]c(=O)n2C)n1CCOc1ccccc1
EC50 [2]: > 195 µM (not active)

C=C(C)Cn1c(NCCC)nc2c1c(=O)n(C)c(=O)n2C
EC50 [2]: > 195 µM (not active)

CC(C)OCCCNC(=O)C1CC(=O)N(C2CCCCCCC2)C1 (stereo unspecified)
AC50 (Cytochrome P450 2C19): 17.8 µM (inconclusive)
AC50 (Cytochrome P450 3A4): 25.1 µM (inconclusive)

CCOc1ccc(N/C(=N/N)c2ccc3ccccc3n2)cc1
EC50 [2]: > 195 µM (not active)

COc1ccccc1C(=O)N/C(=C\c1cn(S(=O)(=O)N(C)C)c2ccccc12)C(=O)NCCN1CCOCC1
EC50 [2]: > 195 µM (not active)

CC(Nc1ccccc1CO)C(=O)Nc1cccc(Cl)c1Cl (stereo unspecified)
EC50 [3]: 7.64 µM (active)
EC50 [4]: 0.12 µM (active)
EC50 [5]: 12.9 µM (active)

CCN(C(=O)C1CCCN(c2ncnc3c2nc2n3CCCCC2)C1)c1cccc(Cl)c1 (stereo unspecified)
CC50 [6]: 10.7 µM (active)

O=C(Nc1ccc2ccccc2c1)c1cn(-c2ccccc2)nc1-c1cccs1
CC50 [6]: 18.6 µM (active)
EC50 [7]: 1.86 µM (active)
EC50 [8]: > 60 µM (not active)

CCCCCCc1cc2cc(C(=O)NCc3ccccc3)c(=N)oc2cc1O
EC50 [1]: 4.2 µM (active)

CS(=O)(=O)N1CCC2(CC1)CN(c1ccncc1)C2
AC50 (Cytochrome P450 2C19): 20 µM (inconclusive)

CCOc1ccccc1-n1c(SCC(=O)Nc2ccc(CC)cc2)nc2nnc(C)c-2c1N
CC50 [6]: 45.1 µM (active)
EC50 [3]: > 60 µM (not active)
EC50 [5]: 9.77 µM (active)

Cc1noc(C)c1COC(=O)c1cccc(N(C)C)c1
CC50 [6]: 11.9 µM (active)

COc1c(Br)cc([N+](=O)[O-])c(OC)c1C(=O)NC(=O)Nc1cc(Cl)cc(Cl)c1
EC50 [3]: > 120 µM (not active)
EC50 [4]: 17.8 µM (active)
EC50 [5]: 15.1 µM (active)

CCCCCc1nc2c(c(=O)c3ccccc3n2C)c(=O)n1Cc1ccc(OC)cc1
CC50 [6]: > 50 µM (active)

CCSc1nnc(NC(=O)C(Cc2ccccc2)n2cccc2)s1 (stereo unspecified)
EC50 [2]: > 195 µM (not active)

CC1(C)Cc2ccccc2C(NNC(=O)c2ccncc2)=N1
AC50 (Cytochrome P450 2C19): 31.6 µM (inconclusive)

COCC(C)OC(=O)C(C#N)c1nc2ccccc2nc1N1CCN(Cc2ccccc2)CC1 (stereo unspecified)
EC50 [3]: 17.6 µM (active)
EC50 [4]: > 120 µM (not active)
EC50 [5]: 23.7 µM (active)

O=C(OCC(=O)N1N=C(c2ccc(Cl)cc2)CC1c1ccco1)c1ccco1 (stereo unspecified)
EC50 [1]: > 53 µM (inactive)

O=C(NNC(=O)C12CC3CC(CC(C3)C1)C2)c1ccccc1F
EC50 [3]: 17.7 µM (active)
EC50 [4]: > 120 µM (not active)
EC50 [5]: 10.2 µM (active)

CN(c1ccccc1)S(=O)(=O)c1nnc(NC(=O)COc2ccccc2F)s1
EC50 [2]: > 195 µM (not active)

COc1ccc(CN2CCSCC2)cc1C
EC50 [1]: 12.7 µM (active)

COc1cc2cc(CN(C(=O)NC3CCCCC3)C3CCCC3)c(O)nc2cc1OC
EC50 [2]: > 195 µM (not active)

Cc1cccc(-c2nnc3n2N=C(c2ccccc2)CS3)c1
EC50 [3]: > 120 µM (not active)
EC50 [4]: > 120 µM (not active)
EC50 [5]: 12.4 µM (active)

CCN1CCN(Cc2ccc(NC(=O)c3cc(NC(=O)c4cnnc5ccccc45)cc(OC)c3)cc2C(F)(F)F)CC1
CC50 [6]: 29 µM (active)

COc1cc2c(cc1OC)CN(C(=O)CCCOc1ccc(Cl)cc1Cl)CC2
CC50 [6]: 24.7 µM (active)

Clc1ccc2c(c1)N(CCCN1CCCC13CCCCC3)c1ccccc1S2
AC50 (Cytochrome P450 2C19): 5.01 µM (inconclusive)

COc1ccc(CC(=N)NOC(=O)Cc2ccccc2)cc1OC
AC50 (Cytochrome P450 2C19): 15.8 µM (inconclusive)
AC50 (Cytochrome P450 1A2): 14.1 µM (inconclusive)

COc1ccc(NC(=O)CC#N)cc1OC
AC50 (Cytochrome P450 2C19): 0.00501 µM (inconclusive)

O=C(CN1CCN(Cc2ccccc2Cl)C1=O)NCc1ccccn1
EC50 [3]: > 120 µM (not active)
EC50 [4]: > 120 µM (not active)
EC50 [5]: > 120 µM (not active)

N#Cc1c(-c2ccc3c(c2)OCO3)csc1N
EC50 [2]: > 195 µM (not active)

Cc1cc([N+](=O)[O-])ccc1NC(=O)CCC(=O)N1CCCCC1
EC50 [2]: > 195 µM (not active)

COc1ccc(NS(=O)(=O)c2ccc(-c3ccccn3)s2)cc1
EC50 [2]: > 195 µM (not active)

C=CCn1c(SCC(=O)NCCc2ccccc2)nnc1C(C)NC(=O)c1cccs1 (stereo unspecified)
EC50 [2]: > 195 µM (not active)

Cc1ccc2nc(CC(=O)c3ccc4ccccc4c3)c(O)nc2c1
AC50 (Cytochrome P450 2C19): 0.794 µM (inconclusive)
AC50 (Cytochrome P450 1A2): 2 µM (inconclusive)
AC50 (Cytochrome P450 3A4): 3.98 µM (inconclusive)

COc1cccc(C(c2nnnn2Cc2ccco2)N2CCN(c3cccc(C)c3C)CC2)c1OC (stereo unspecified)
CC50 [6]: 18.5 µM (active)

CCc1nc2c(c(=O)c3ccccc3n2C)c(=O)n1C1CCCCCC1
CC50 [6]: 20.7 µM (active)
EC50 [1]: 6.21 µM (active)

C[C@]12CC[C@H]3c4ccc(OC[C@H]5CO5)cc4CC[C@H]3[C@H]1CC[C@@H]2O
AC50 (Cytochrome P450 2C19): 3.16 µM (inconclusive)
AC50 (Cytochrome P450 2C9): 3.16 µM (inconclusive)

N#CN(CC(N)=O)c1nc(N2CCCCC2)nc(N2CCCCC2)n1
AC50 (Cytochrome P450 2C19): 22.4 µM (inconclusive)
AC50 (Cytochrome P450 2C9): 10 µM (inconclusive)

CC(C)CC1Nc2ccc(C(=O)NCCCN3CCOCC3)cc2NC1=O (stereo unspecified)
EC50 [2]: > 195 µM (not active)

Cc1noc(C)c1CSCC(=O)Nc1ccc(S(=O)(=O)C(F)F)cc1
EC50 [2]: > 195 µM (not active)

COC(=O)[C@@]1(Cc2ccc(F)cc2)[C@H]2c3cc(C(=O)N4CCCC4)n(Cc4ccccn4)c3C[C@H]2CN1C(=O)c1ccccc1
AC50 (Cytochrome P450 2C19): 39.8 µM (inconclusive)
AC50 (Cytochrome P450 1A2): 20 µM (inconclusive)

CCCn1c(SCC(=O)N2CC(=O)Nc3ccccc32)nc2ccccc21
EC50 [1]: > 53 µM (inactive)

O=C(NCCCN1CCOCC1)c1ccc(-n2nc(C(F)(F)F)cc2-c2cccs2)cc1
EC50 [3]: 11.6 µM (active)
EC50 [4]: 34.9 µM (active)
EC50 [5]: 16.4 µM (active)
